This assay concerns the target Bet BRD4 full length bromo-domain protein (Homo sapiens, UniProt O60885). As to the kind of experiment: Bet bromodomain TR-FRET assay (displacement of acetyl histone peptide). It is filed as binding. To be noted: Bet BRD4 full length bromodomain protein, 300 nM acetyl histone peptide substrate, read-out: IC50. (Time-resolved FRET reads energy transfer from a long-lived donor to a nearby acceptor.)

pIC50: −log10 of the molar value.

With `O=C(Nc1ccncc1)c1cc(NS(=O)(=O)c2ccc(F)cc2F)cc2c1NC(=O)C21CCC1` [Compound 57, 5′-(2,4-Difluorophenylsulfonamido)-2′-oxo-N-(pyridin-4-yl)spiro[cyclobutane-1,3′-indoline]-7′-carboxamide], the pIC50 (in general, −log10 of the IC50, conventionally taken in molar units) was over 6.22.
With `CN1CCC(NC(=O)c2cc(NS(=O)(=O)c3ccc(Br)cc3F)cc3c2NC(=O)C32CCC2)CC1` [Compound 74, 5′-((4-Bromo-2-fluorophenyl)sulfonamido)-N-(1-methylpiperidin-4-yl)-2′-oxospiro[cyclobutane-1,3′-indoline]-7′-carboxamide] the figure was over 6.22; with `O=C1Nc2c(-c3ccc4nc[nH]c4c3)cc(NS(=O)(=O)c3ccc(F)cc3F)cc2C12CCC2` [Compound 8, N-(7′-(1H-benzo[d]imidazol-6-yl)-2′-oxospiro[cyclobutane-1,3′-indolin]-5′-yl)-2,4-difluorobenzenesulfonamide], 6.00 to 6.22; with `CCN(c1cc(OC2CCN(C)CC2)c2c(c1)C1(CCC1)C(=O)N2)S(=O)(=O)c1ccccc1OC` [compound 179, N-ethyl-2-methoxy-N-(7′-((1-methylpiperidin-4-yl)oxy)-2′-oxospiro[cyclobutane-1,3′-indolin]-5′-yl)benzenesulfonamide], under 6.00.
As to `COc1ccccc1S(=O)(=O)Nc1cc(OC[C@@H]2CCCN2C)c2c(c1)C1(CCC1)C(=O)N2` [Compound 139, (S)-2-methoxy-N-(7′-((1-methylpyrrolidin-2-yl)methoxy)-2′-oxospiro[cyclobutane-1,3′-indolin]-5′-yl)benzenesulfonamide], the negative-log IC50 (pIC50) is over 6.22.
For the molecule `O=C1Nc2c(OCC3CNCCO3)cc(NS(=O)(=O)c3ccc(Cl)cc3F)cc2C12CCC2` (centres unmarked) [compound 202, 4-Chloro-2-fluoro-N-(7′-(morpholin-2-ylmethoxy)-2′-oxospiro[cyclobutane-1,3′-indolin]-5′-yl)benzenesulfonamide], the negative logarithm of the IC50 (pIC50) is over 6.22.
Then `COC(=O)c1ccc(S(=O)(=O)Nc2cc(C(=O)NC3CCN(C)CC3)c3c(c2)C2(CCC2)C(=O)N3)c(F)c1` [Compound 80, Methyl 3-fluoro-4-(N-(7′-((1-methylpiperidin-4-yl)carbamoyl)-2′-oxospiro[cyclobutane-1,3′-indolin]-5′-yl)sulfamoyl)benzoate], with under 6.00.
On to `COc1ccccc1S(=O)(=O)Nc1cc(OC(=O)N2CCOCC2)c2c(c1)C1(CCC1)C(=O)N2` [Compound 170, 5′-((2-Methoxyphenyl)sulfonamido)-2′-oxospiro[cyclobutane-1,3′-indolin]-7′-yl morpholine-4-carboxylate], for which the negative logarithm of the IC50 (pIC50) is over 6.22.
Consider `COc1ccccc1S(=O)(=O)Nc1cc(OC2CCN(C(C)C)CC2)c2c(c1)C1(CCC1)C(=O)N2` [Compound 136, N-(7′-((1-isopropylpiperidin-4-yl)oxy)-2′-oxospiro[cyclobutane-1,3′-indolin]-5′-yl)-2-methoxybenzenesulfonamide], for which the negative logarithm of the IC50 (pIC50) is over 6.22.
`Cc1nc(CNc2cc(NS(=O)(=O)c3ccc(F)cc3F)cc3c2NC(=O)C32CCC2)c[nH]1` [Compound 30, 2,4-Difluoro-N-(7′-(((2-methyl-1H-imidazol-4-yl)methyl)amino)-2′-oxospiro[cyclobutane-1,3′-indolin]-5′-yl)benzenesulfonamide]: the pIC50 was over 6.22.
Then `Cn1cnc(CNc2cc(NS(=O)(=O)c3ccc(F)cc3F)cc3c2NC(=O)C32CCC2)c1` [Compound 31, 2,4-Difluoro-N-(7′-(((1-methyl-1H-imidazol-4-yl)methyl)amino)-2′-oxospiro[cyclobutane-1,3′-indolin]-5′-yl)benzenesulfonamide], with over 6.22; and `COc1ccccc1S(=O)(=O)Nc1cc(OC2CCCN(C)CC2)c2c(c1)C1(CCC1)C(=O)N2` (centres unmarked) [Compound 140, 2-Methoxy-N-(7′-((1-methylazepan-4-yl)oxy)-2′-oxospiro[cyclobutane-1,3′-indolin]-5′-yl)benzenesulfonamide], with over 6.22; and `O=C1Nc2c(NC3CCNCC3F)cc(NS(=O)(=O)c3ccc(F)cc3F)cc2C12CCC2` (centres unmarked) [Compound 102, 2,4-Difluoro-N-(7′-((3-fluoropiperidin-4-yl)amino)-2′-oxospiro[cyclobutane-1,3′-indolin]-5′-yl)benzenesulfonamide], with 6.00 to 6.22.
Then `CS(=O)(=O)N1CCC(Oc2cc(NS(=O)(=O)c3ccc(Cl)cc3F)cc3c2NC(=O)C32CCC2)CC1` [Compound-210, 4-Chloro-2-fluoro-N-(7′-((1-(methylsulfonyl)piperidin-4-yl)-oxy)-2′-oxospiro[cyclobutane-1,3′-indolin]-5′-yl)benzenesulfonamide], with over 6.22.
Take `COc1ccccc1NC(=O)Nc1cc(C2CC2)c2c(c1)C1(CCC1)C(=O)N2` [Compound 121, 1-(7′—Cyclopropyl-2′-oxospiro[cyclobutane-1,3′-indolin]-5′-yl)-3-(2-methoxyphenyl)urea]: the negative-log IC50 (pIC50) is over 6.22.
Consider `COc1ccccc1S(=O)(=O)Nc1cc(B(O)O)c2c(c1)C1(CCC1)C(=O)N2` [Compound-217, (5′-((2-Methoxyphenyl)sulfonamido)-2′oxospiro[cyclobutane-1,3′-indolin]-7′-yl)boronic acid], for which the pIC50 was under 6.00.
With `O=C1Nc2c(OC3CCS(=O)(=O)CC3)cc(NS(=O)(=O)c3ccc(Cl)cc3F)cc2C12CCC2` [Compound 144, 4-Chloro-N-(7′-((1,1-dioxidotetrahydro-2H-thiopyran-4-yl)oxy)-2′-oxospiro[cyclobutane-1,3′-indolin]-5′-yl)-2-fluorobenzenesulfonamide] the figure was over 6.22; with `COc1ccccc1S(=O)(=O)Nc1cc(OC2CCNCC2)c2c(c1)C1(CCC1)C(=O)N2` [compound 199, 2-Methoxy-N-(2′-oxo-7′-(piperidin-4-yloxy)spiro[cyclobutane-1,3′-indolin]-5′-yl)benzenesulfonamide], over 6.22; with `O=C1CCC(Oc2cc(NS(=O)(=O)c3ccc(Cl)cc3F)cc3c2NC(=O)C32CCC2)CC1` [Compound 176, 4-chloro-2-fluoro-N-(2′-oxo-7′-((4-oxocyclohexyl)oxy)spiro[cyclobutane-1,3′-indolin]-5′-yl)benzenesulfonamide], over 6.22.
Then `COc1ccccc1S(=O)(=O)Nc1cc(Oc2ccc(N)nc2)c2c(c1)C1(CCC1)C(=O)N2` [Compound 145, N-(7′-((6-aminopyridin-3-yl)oxy)-2′-oxospiro[cyclobutane-1,3′-indolin]-5′-yl)-2-methoxybenzenesulfonamide], with over 6.22; and `CN1CCC(CCNc2cc(NS(=O)(=O)c3ccc(F)cc3F)cc3c2NC(=O)C32CCC2)CC1` [Compound 28, 2,4-Difluoro-N-(7′-((2-(1-methylpiperidin-4-yl)ethyl)amino)-2′-oxospiro[cyclobutane-1,3′-indolin]-5′-yl)benzenesulfonamide], with over 6.22.
As for `COc1ccccc1S(=O)(=O)Nc1cc(OCCN(C)C)c2c(c1)C1(CCC1)C(=O)N2` [Compound 162, N-(7′-(2-(dimethylamino)ethoxy)-2′-oxospiro[cyclobutane-1,3′-indolin]-5′-yl)-2-methoxybenzenesulfonamide], the pIC50 was over 6.22.
Then `CN(C)CCOc1cc(NS(=O)(=O)c2ccc(Cl)cc2F)cc2c1NC(=O)C21CCC1` [Compound 163, 4-Chloro-N-(7′-(2-(dimethylamino)ethoxy)-2′-oxospiro[cyclobutane-1,3′-indolin]-5′-yl)-2-fluorobenzenesulfonamide], with over 6.22; and `O=C1Nc2c(NC3CCOCC3)cc(NS(=O)(=O)c3ccc(F)cc3F)cc2C12CCC2` [Compound 18, 2,4-Difluoro-N-(2′-oxo-7′-((tetrahydro-2H-pyran-4-yl)amino)spiro[cyclobutane-1,3′-indolin]-5′-yl)benzenesulfonamide], with over 6.22.
Then `CN1CCCC(Nc2cc(NS(=O)(=O)c3ccc(F)cc3F)cc3c2NC(=O)C32CCC2)C1` (single isomer, unassigned) [Compound 35, 2,4-Difluoro-N-(7′-((1-methylpiperidin-3-yl)amino)-2′-oxospiro[cyclobutane-1,3′-indolin]-5′-yl)benzenesulfonamide], with 6.00 to 6.22.
Then `COc1ccccc1S(C)(=O)=Nc1cc(N)c2c(c1)C1(CCC1)C(=O)N2` (centres unmarked) [Compound-182, 7′-Amino-5′-(((2-methoxyphenyl)(methyl)(oxo)-l6-sulfanylidene)amino)spiro[cyclobutane-1,3′-indolin]-2′-one], with under 6.00; and `O=C1Nc2c(OCCn3cccn3)cc(NS(=O)(=O)c3ccc(Cl)cc3F)cc2C12CCC2` [Compound 161, N-(7′-(2-(1H-pyrazol-1-yl)ethoxy)-2′-oxospiro[cyclobutane-1,3′-indolin]-5′-yl)-4-chloro-2-fluorobenzenesulfonamide], with over 6.22.
Take `CC(Oc1cc(NS(=O)(=O)c2ccc(Cl)cc2F)cc2c1NC(=O)C21CCC1)c1ccccn1` (single isomer, unassigned) [Compound 155, 4-Chloro-2-fluoro-N-(2′-oxo-7′-(1-(pyridin-2-yl)ethoxy)spiro[cyclobutane-1,3′-indolin]-5′-yl)benzenesulfonamide]: the pIC50 is 6.00 to 6.22.
Consider `O=C1Nc2c(OC3CCNCC3)cc(NS(=O)(=O)c3ccc(Cl)cc3F)cc2C12CCC2` [Compound-197, 4-Chloro-2-fluoro-N-(2′-oxo-7′-(piperidin-4-yloxy)spiro-[cyclobutane-1,3′-indolin]-5′-yl)benzene sulfonamide], for which the pIC50 was over 6.22.
Then `CN1CCOC(COc2cc(NS(=O)(=O)c3ccc(Cl)cc3F)cc3c2NC(=O)C32CCC2)C1` (centres unmarked) [compound 194, 4-Chloro-2-fluoro-N-(7′-((4-methylmorpholin-2-yl)methoxy)-2′-oxospiro[cyclobutane-1,3′-indolin]-5′-yl)benzenesulfonamide], with over 6.22; and `COc1ccccc1S(=O)(=O)Nc1cc(OC2CCN(C(C)=O)CC2)c2c(c1)C1(CCC1)C(=O)N2` [Compound-220], with over 6.22.
Take `COc1ccccc1S(=O)(=O)Nc1cc(NCC2CC2)c2c(c1)C1(CCC1)C(=O)N2` [Compound 13, N-(7′-((cyclopropylmethyl)amino)-2′-oxospiro[cyclobutane-1,3′-indolin]-5′-yl)-2-methoxybenzenesulfonamide]: the pIC50 is over 6.22.
